From USRE40086E1, “Method for treating bacterial infection with novel 7-substituted-9-substituted amino 6-demethyl-6-deoxytetracyclines” (Wyeth Holdings Corporation, priority 1991, dated 2008)

Tests used:
[1] = system: E. coli #311 (MP); experiment: MIC, agar dilution (Table IA); type: cell-based; details: unit assumed
[2] = system: X. maltophilia NEMC 87210; experiment: MIC, agar dilution (Table IA); type: cell-based; details: unit assumed
[3] = system: S. aureus IVES 1983 (meth. resistant); experiment: MIC, agar dilution; type: cell-based; details: S. aureus IVES 1983; Table IA; unit assumed
[4] = system: E. faecalis ATCC 29212; experiment: MIC, agar dilution; type: cell-based; details: E. faecalis ATCC 29212; Table IA; unit assumed
[5] = system: S. aureus UBMS 90-3 (Sensitive); experiment: MIC, agar dilution; type: cell-based; details: S. aureus UBMS 90-3; Table IA; unit assumed
[6] = system: E. coli BAJ9003; experiment: MIC, agar dilution (Table IA); type: cell-based; details: unit assumed
[7] = system: E. coli J3272 TetC; experiment: MIC, agar dilution (Table IA); type: cell-based; details: unit assumed
[8] = system: E. coli ATCC 25922; experiment: MIC, agar dilution; type: cell-based; details: E. coli ATCC 25922; Table IA; unit assumed
[9] = system: S. aureus ROSE (MP); experiment: MIC, agar dilution (Table IA); type: cell-based; details: unit assumed
[10] = system: E. coli MC4100 Tet sens.; experiment: MIC, agar dilution (Table IA); type: cell-based; details: unit assumed
[11] = system: S. mariescens FDOR 8733; experiment: MIC, agar dilution (Table IA); type: cell-based; details: unit assumed
[12] = system: Ps. acruginosa ATCC 27853; experiment: MIC, agar dilution (Table IA); type: cell-based; details: unit assumed
[13] = system: S. aureus UBMS 88-7 (tetK); experiment: MIC, agar dilution; type: cell-based; details: S. aureus UBMS 88-7 TetK; Table IA; unit assumed
[14] = system: E. coli UBMS 88-1 (tetB); experiment: MIC, agar dilution; type: cell-based; details: E. coli UBMS 88-1 TetB; Table IA; unit assumed
[15] = system: S. haemolyticus AVAH 88-3; experiment: MIC, agar dilution; type: cell-based; details: S. hemolyticus AVHAH 88-3; Table IA; unit assumed
[16] = system: S. aureus ATCC 29213 (Sensitive); experiment: MIC, agar dilution; type: cell-based; details: S. aureus ATCC 29213; Table IA; unit assumed
[17] = system: E. coli J3272 TetD; experiment: MIC, agar dilution (Table IA); type: cell-based; details: unit assumed
[18] = system: S. aureus UBMS 88-4 (Sensitive); experiment: MIC, agar dilution; type: cell-based; details: S. aureus UBMS 88-4; Table IA; unit assumed
[19] = system: S. aureus UBMS 90-1 (tetM); experiment: MIC, agar dilution; type: cell-based; details: S. aureus UBMS 90-1 TetM; Table IA; unit assumed
[20] = system: E. coli UBMS 89-2 (Sensitive); experiment: MIC, agar dilution; type: cell-based; details: E. coli UBMS 89-2 Tet Sens.; Table IA; unit assumed
[21] = system: E. coli UBMS 89-1 (tetM); experiment: MIC, agar dilution; type: cell-based; details: E. coli UBMS 89-1 TetM; Table IA; unit assumed
[22] = system: E. coli J2175; experiment: MIC, agar dilution (Table IA); type: cell-based; details: unit assumed
[23] = system: S. aureus IVES 2943 (meth. resistant); experiment: MIC, agar dilution; type: cell-based; details: S. aureus IVES 2943; Table IA; unit assumed
[24] = system: S. aureus UBMS 90-2 (tetM); experiment: MIC, agar dilution; type: cell-based; details: S. aureus UBMS 90-2 TetM; Table IA; unit assumed
[25] = system: E. coli UBMS 90-5; experiment: MIC, agar dilution (Table IA); type: cell-based; details: unit assumed
[26] = system: S. aureus Smith (Sensitive); experiment: MIC, agar dilution; type: cell-based; details: S. aureus SMITH (MP); Table IA; unit assumed
[27] = system: E. coli PRP1 TetA; experiment: MIC, agar dilution (Table IA); type: cell-based; details: unit assumed
[28] = system: S. aureus SMITH (sens); experiment: In vivo antibacterial evaluation, acute lethal infection in mice; details: Oral
Excerpt: In Vivo Antibacterial Evaluation (Table VII)

[29] = system: S. aureus UBMS 88-5 (tetM); experiment: MIC, agar dilution; type: cell-based; details: S. aureus UBMS 88-5 TetM; Table IA; unit assumed
[30] = system: E. faecalis 12201; experiment: MIC, agar dilution; type: cell-based; details: Enterococcus 12201; Table IA; unit assumed
[31] = system: S. aureus NEMC 8769/89-4; experiment: MIC, agar dilution (Table IA); type: cell-based; details: unit assumed
[32] = system: E. coli UBMS 90-4 (tetM); experiment: MIC, agar dilution; type: cell-based; details: E. coli UBMS 90-4 TetM; Table IA; unit assumed
[33] = system: E. coli MC4100 TetB; experiment: MIC, agar dilution (Table IA); type: cell-based; details: unit assumed

SMILES | Antibacterial activity (MIC) [1] [µg/mL] | Antibacterial activity (MIC) [2] [µg/mL] | Antibacterial activity (MIC) [3] [µg/mL] | Antibacterial activity (MIC) [4] [µg/mL] | Antibacterial activity (MIC) [5] [µg/mL] | Antibacterial activity (MIC) [6] [µg/mL] | Antibacterial activity (MIC) [7] [µg/mL] | Antibacterial activity (MIC) [8] [µg/mL] | Antibacterial activity (MIC) [9] [µg/mL] | Antibacterial activity (MIC) [10] [µg/mL] | Antibacterial activity (MIC) [11] [µg/mL] | Antibacterial activity (MIC) [12] [µg/mL] | Antibacterial activity (MIC) [13] [µg/mL] | Antibacterial activity (MIC) [14] [µg/mL] | Antibacterial activity (MIC) [15] [µg/mL] | Antibacterial activity (MIC) [16] [µg/mL] | Antibacterial activity (MIC) [17] [µg/mL] | Antibacterial activity (MIC) [18] [µg/mL] | Antibacterial activity (MIC) [19] [µg/mL] | Antibacterial activity (MIC) [20] [µg/mL] | other results
CN(C)c1cc(NC(=O)CNCc2ccccc2)c(O)c2c1CC1CC3C(N(C)C)C(O)=C(C(N)=O)C(=O)C3(O)C(O)=C1C2=O.Cl.Cl (stereo not drawn) [EEE, [4S-(4alpha,12aalpha)]-4,7-Bis(dimethylamino)-1,4,4a,5,5a,6,11,12a-octahydro-3,10,12,12a-tetrahydroxy-1,11-dioxo-9-[[[(phenylmethyl)amino]acetyl]amino]-2-naphthacenecarboxamide dihydrochloride] | 0.5 | 1 | 2 | 0.25 | 0.25 | 0.25 | 2 | 0.5 | 8 | 0.5 | 4 | 32 | 2 | 2 | 2 | 0.5 | 0.5 | 0.25 | 0.5 | 4 | Antibacterial activity (MIC) [21]: 0.5 µg/mL; Antibacterial activity (MIC) [22]: 4 µg/mL; Antibacterial activity (MIC) [23]: 2 µg/mL; Antibacterial activity (MIC) [24]: 0.25 µg/mL; Antibacterial activity (MIC) [25]: 0.5 µg/mL; Antibacterial activity (MIC) [26]: 0.25 µg/mL; Antibacterial activity (MIC) [27]: 4 µg/mL; ED50 [28]: 8 to 16 mg/kg; Antibacterial activity (MIC) [29]: 0.5 µg/mL; Antibacterial activity (MIC) [30]: 0.25 µg/mL; Antibacterial activity (MIC) [31]: 0.12 µg/mL; Antibacterial activity (MIC) [32]: 0.5 µg/mL; Antibacterial activity (MIC) [33]: 4 µg/mL
CC(C(=O)Nc1cc(N(C)C)c2c(c1O)C(=O)C1=C(O)C3(O)C(=O)C(C(N)=O)=C(O)C(N(C)C)C3CC1C2)N1CCCC1.Cl.Cl (stereo not drawn) [AAA, [7S-(7alpha,10aalpha)]-N-[9-(Aminocarbonyl)-4,7-bis(dimethylamino)-5,5a,6,6a,7,10,10a,12-octahydro-1,8,10a,11-tetrahydroxy-10,12-dioxo-2-naphthacenyl)-alpha-methyl-1-pyrrolidineacetamide dihydrochloride] | 0.25 | 0.5 | 0.5 | 0.12 | 0.25 | 0.06 | 0.5 | 0.25 | 2 | 0.12 | 4 | > 32 | 0.5 | 0.5 | 0.5 | 0.25 | 0.12 | 0.25 | 0.5 | 0.5 | Antibacterial activity (MIC) [21]: 0.12 µg/mL; Antibacterial activity (MIC) [22]: 0.5 µg/mL; Antibacterial activity (MIC) [23]: 0.5 µg/mL; Antibacterial activity (MIC) [24]: 0.25 µg/mL; Antibacterial activity (MIC) [25]: 0.5 µg/mL; Antibacterial activity (MIC) [26]: 0.25 µg/mL; Antibacterial activity (MIC) [27]: 0.5 µg/mL; ED50 [28]: >16 mg/kg; Antibacterial activity (MIC) [29]: 0.25 µg/mL; Antibacterial activity (MIC) [30]: 0.12 µg/mL; Antibacterial activity (MIC) [31]: 0.12 µg/mL; Antibacterial activity (MIC) [32]: 0.5 µg/mL; Antibacterial activity (MIC) [33]: 0.5 µg/mL
CCCCCNCC(=O)Nc1cc(N(C)C)c2c(c1O)C(=O)C1=C(O)C3(O)C(=O)C(C(N)=O)=C(O)C(N(C)C)C3CC1C2.Cl.Cl (stereo not drawn) [DDD, [4S-(4alpha,12aalpha)]-4,7-Bis(dimethylamino)-1,4 4a,5,5a,6,11,12a-octahydro-3,10-12,12a-tetrahydroxy-1,11-dioxo-9-[[(pentylamino)acetyl]amino)-2-naphthacenecarboxamide dihydrochloride] | 0.5 | 0.5 | 4 | 0.25 | 0.5 | 0.12 | 0.5 | 0.5 | 4 | 0.12 | 8 | 32 | 2 | 0.5 | 0.5 | 1 | 0.25 | 0.5 | 1 | 0.5 | Antibacterial activity (MIC) [21]: 0.25 µg/mL; Antibacterial activity (MIC) [22]: 0.5 µg/mL; Antibacterial activity (MIC) [23]: 4 µg/mL; Antibacterial activity (MIC) [24]: 0.5 µg/mL; Antibacterial activity (MIC) [25]: 0.5 µg/mL; Antibacterial activity (MIC) [26]: 0.25 µg/mL; Antibacterial activity (MIC) [27]: 1 µg/mL; ED50 [28]: 8 to 16 mg/kg; Antibacterial activity (MIC) [29]: 0.5 µg/mL; Antibacterial activity (MIC) [30]: 0.25 µg/mL; Antibacterial activity (MIC) [31]: 0.25 µg/mL; Antibacterial activity (MIC) [32]: 0.5 µg/mL; Antibacterial activity (MIC) [33]: 0.5 µg/mL
